This note sets out measurements from ChEMBL document CHEMBL1681776, “A photoreactive probe that differentiates the binding sites of noncompetitive GABA receptor antagonists” (Bioorg Med Chem Lett, 2011).

Calls of active or inactive are those of the source. The rule behind the calls is not given here.

For orientation: IC50 means the concentration at which inhibition is half-maximal. Read a low IC50 as greater potency in that assay.

The nature of experiment [1]: (§1) Displacement of [3H]EBOB from housefly head membrane GABA receptor by liquid scintillation counting. More on the design: species or system Musca domestica.
Experiment [2] is described as follows: (§2) Displacement of [3H]EBOB from Wistar rat brain membrane GABA receptor by liquid scintillation counting. A general note: In a radioligand displacement assay an active substance lowers the binding of a labelled ligand.
The next experiment has as its system Musca domestica. The experiment is described as §1.
For experiment [3], the species on record is Rattus norvegicus. Briefly: Displacement of [3H]EBOB from GABA receptor in Wistar rat brain P2 membrane in presence of fipronil measured after membrane washout. It counts as cell membranes.
For experiment [4], the species on record is Rattus norvegicus. Briefly: Displacement of [3H]EBOB from GABA receptor in 365 nm ultraviolet light irradiated Wistar rat brain P2 membrane by photoaffinity labeling experiment in presence of picrotoxinin measured after membrane washout.
The species entered for experiment [5] is Rattus norvegicus. The experiment can be described thus: Displacement of [3H]EBOB from GABA receptor in 365 nm ultraviolet light irradiated Wistar rat brain P2 membrane by photoaffinity labeling experiment.
Experiment [6] is filed under the species Rattus norvegicus. The description is as §2.

Consider `CC(C)(C)CCOC(=O)c1ccc(C#CCCC(=O)O)cc1`, for which the IC50 was determined as 3410 nM in experiment [1] and 88 nM in experiment [2].
For `COC(=O)CCC#Cc1ccc(C(=O)Oc2ccc(C3(C(F)(F)F)N=N3)cc2[N+](=O)[O-])cc1`, the Activity entry with Musca domestica and in the experiment listed under Rattus norvegicus [6] was “Dose-dependent effect” each time. Also, the IC50 turned out to be 240 nM in experiment [1] and 1490 nM in experiment [2]. Moreover, the result in the experiment filed under Rattus norvegicus [3] and in the experiment filed under Rattus norvegicus [5] was Active. For the same compound, in the experiment listed under Rattus norvegicus [4], the outcome was inactive.
